Laboratory results as given in patent US12545695B2, “Compounds for inhibiting neovascularization factors and use thereof” (UNIST (ULSAN NATIONAL INSTITUTE OF SCIENCE AND TECHNOLOGY), priority 2019, dated 2026).

Tests used:
[1] = test system: TRAP-1; assay: ATPase activity assay (PiColorLock Gold Phosphate Detection Kit); type: biochemical; settings: TRAP1 0.5 μM, 0.2 mM ATP, inhibitor 0.520 μM preincubated 30 minutes (FIG. 16)
Experimental: ATPase activity was measured by measuring the release of inorganic phosphates through the PiColorLock Gold Phosphate Detection Kit (Innova Biosciences) according to the manufacturer's manual. TRAP1 (0.5 μM) was cultured with 0.2 mM ATP in 100 mM Tris, 20 mM KCl, and 6 mM MgCl2 under the conditions of pH 7.0 and 37° C. for 3 hours. Thereafter, the PiColorLock Gold reagent and an accelerator (100:1) were added to a 100 μL ATP hydrolyzate sample. After culturing at 25° C. for 5 minutes, the change in color was stopped by adding 10 μL of a stop solution thereto, and the absorbance at 620 nm was measured by SYNERGY NEO microplate reader (BioTek Instruments).
For inhibitory ability analysis, TRAP1 was cultured with a predetermined concentration (0.520 μM) of inhibitor for 30 minutes and then stirred with ATP. Absorbance values were normalized to a DMSO control and data was expressed as % ATPase activity.
For inhibitory ability analysis, TRAP-1 was cultured with a predetermined concentration (0.520 μM) of inhibitor for 30 minutes and then stirred with ATP. Absorbance values were normalized to a DMSO control and data was expressed as % ATPase activity.

[2] = test system: TRAP-1; assay: Pull-down assay: client proteins SIRT3 and SDHB on GST-TRAP1 beads; type: binding; settings: TRAP1-bead form with isolated mitochondria and drug, 4° C., 18 hours (FIG. 14)
Experimental: A pull-down assay was performed to confirm whether SMx competitively binds to SIRT3 and SDHB, which are known as client proteins of TRAP-1. TRAP1 protein in the GST fusion form was purified from bacteria cells and then bound to glutathione beads to make a TRAP1-bead form, and then the TRAP1-bead form was bound to the mitochondria isolated from mammalian cells (Thermo Scientific mitochondria isolation kit) with a drug at 4° C. for 18 hours. The cells were treated with SMx, and gamitrinib and PU-H71, which are previously developed N-terminal domain inhibitors of hsp90s, as the drugs, according to the concentrations shown in the drawing. […] This is strong evidence that SMx has the ability to bind to the middle domain of TRAP-1.

Row | Molecule | ATPase activity of TRAP-1 [1] | binding of the client protein (SIRT3, SDHB) to TRAP-1 [2]
1 | CC(C)NCCCn1c(Sc2cc3c(cc2I)OCO3)nc2c(N)ncnc21 [PU-H71] | significantly decreased according to the concentration | not significantly changed
2 | gamitrinib |  | not significantly changed
